Measured values published in patent publication US10101331B2, “Methods of evaluating patients using E-cadherin or vimentin” (AGIOS PHARMACEUTICALS, INC, priority 2012, dated 2018).

Tested on: NCI-H358 cell line
Experiment: TGFβ treatment of NCI-H358, western blot phenotype
Assay type: cell-based
Description: FIG. 4A depicts a western blot analysis of the non-small cell lung cancer cell line NCI-H358 for protein levels of E-cadherin, vimentin, PC ([…]), GLS (phosphate activated glutaminase), and actin (control).
In order to better understand the contribution of mesenchymal versus epithelial phenotype to GLS dependence, the NCI-H358 cell line was treated with TGFβ and the phenotype assayed.

Substance: TGFβ: TGFβ used to induce EMT in the NCI-H358 cell line
- phenotype after TGFβ treatment (E-cadherin/vimentin expression): shift to a mesenchymal phenotype
- increase in GAC protein levels in the mesenchymal variant (TGFβ induced EMT): 2 fold
